Results: the CheMixHub viscosity set

Assay: xn = mol fraction of the nth substance listed

CNC(C)=O + CC(=O)c1ccccc1
308.15 K, 101 kPa
Details	viscosity [mPa·s]
x2 = 0.0686	3.109
x2 = 0.138	2.919
x2 = 0.2189	2.657
x2 = 0.3143	2.397
x2 = 0.3938	2.199
x2 = 0.4912	1.965
x2 = 0.6042	1.747
x2 = 0.7227	1.561
x2 = 0.8517	1.455

CCOCCO + CCCCCC
viscosity [mPa·s], 101.33 kPa
Details	x1 = 0.0967	x1 = 0.1963	x1 = 0.2958	x1 = 0.394	x1 = 0.4948	x1 = 0.5958	x1 = 0.6979	x1 = 0.7955	x1 = 0.8993
298.15 K	0.335	0.376	0.433	0.504	0.595	0.716	0.875	1.087	1.452
303.15 K	0.318	0.357	0.406	0.472	0.554	0.663	0.803	0.987	1.315
308.15 K	0.303	0.339	0.385	0.443	0.517	0.615	0.741	0.907	1.199
313.15 K	0.29	0.322	0.361	0.415	0.484	0.573	0.686	0.829	1.083

CCOCCO + CCCO
viscosity [mPa·s]
Details	298.15 K	303.15 K	308.15 K	313.15 K
101 kPa, x1 = 0.069	1.942	–	–	–
101 kPa, x1 = 0.1429	1.891	–	–	–
101 kPa, x1 = 0.2223	1.852	–	–	–
101 kPa, x1 = 0.3078	1.826	–	–	–
101 kPa, x1 = 0.4001	1.811	–	–	–
101 kPa, x1 = 0.5001	1.806	–	–	–
101 kPa, x1 = 0.6088	1.81	–	–	–
101 kPa, x1 = 0.7273	1.823	–	–	–
101 kPa, x1 = 0.8572	1.839	–	–	–
101.33 kPa, x1 = 0.0969	1.815	1.607	1.431	1.272
101.33 kPa, x1 = 0.199	1.761	1.56	1.395	1.244
101.33 kPa, x1 = 0.2917	1.73	1.542	1.376	1.235
101.33 kPa, x1 = 0.3971	1.659	1.482	1.326	1.178
101.33 kPa, x1 = 0.4928	1.711	1.521	1.366	1.223
101.33 kPa, x1 = 0.5933	1.721	1.531	1.377	1.233
101.33 kPa, x1 = 0.6923	1.732	1.546	1.386	1.232
101.33 kPa, x1 = 0.7987	1.754	1.567	1.403	1.265
101.33 kPa, x1 = 0.8853	1.774	1.578	1.418	1.402

N#C[C-](C#N)C#N.OCCC[n+]1ccccc1 + c1ccsc1
101 kPa
Details	viscosity [mPa·s]
298.15 K, x1 = 0.5955	36.55
313.15 K, x1 = 0.9377	39.55

CNC(C)=O + CCCCO
303.15 K, 101 kPa
Details	viscosity [mPa·s]
x1 = 0.0988	2.32
x1 = 0.2013	2.369
x1 = 0.2993	2.428
x1 = 0.3951	2.525
x1 = 0.4945	2.651
x1 = 0.5957	2.82
x1 = 0.6947	3.015
x1 = 0.8011	3.259
x1 = 0.8918	3.503

CC(C)CCO + CCCCOC(C)=O
308 K, 101 kPa
Details	viscosity [mPa·s]
x2 = 0.0998	2.631
x2 = 0.2003	2.091
x2 = 0.3001	1.715
x2 = 0.3999	1.418
x2 = 0.4998	1.221
x2 = 0.5999	1.019
x2 = 0.6997	0.917
x2 = 0.8002	0.811
x2 = 0.9002	0.734

CCOCCO + CCCCCCCCO
298.15 K, 101 kPa
Details	viscosity [mPa·s]
x1 = 0.1384	6.062
x1 = 0.2654	5.061
x1 = 0.3825	4.268
x1 = 0.4907	3.649
x1 = 0.591	3.172
x1 = 0.6843	2.805
x1 = 0.7713	2.504
x1 = 0.8525	2.266
x1 = 0.9286	2.078

CNC(C)=O + CS(C)=O
313 K, 101 kPa
Details	viscosity [mPa·s]
x2 = 0.0743	2.725
x2 = 0.177	2.42
x2 = 0.2759	2.198
x2 = 0.3801	2.01
x2 = 0.4764	1.888
x2 = 0.5737	1.78
x2 = 0.6725	1.696
x2 = 0.7647	1.626
x2 = 0.8734	1.567
x2 = 0.9723	1.522

CCC(=O)O.OCCNCCO + CCO
303.15 K, 101 kPa
Details	viscosity [mPa·s]
x1 = 0.5084	116.5
x1 = 0.6965	177.5
x1 = 0.804	226.5

CCOCCO + c1ccccc1
viscosity [mPa·s], 101 kPa
Details	298.15 K	308.15 K
x1 = 0.0585	0.632	0.548
x1 = 0.1533	0.686	0.587
x1 = 0.2518	0.752	0.635
x1 = 0.3637	0.841	0.7
x1 = 0.4521	0.923	0.76
x1 = 0.5048	0.979	0.8
x1 = 0.5525	1.034	0.839
x1 = 0.6521	1.164	0.931
x1 = 0.7508	1.317	1.039
x1 = 0.8521	1.505	1.17
x1 = 0.9547	1.734	1.328

CC(CC(C)(C)C)CP(=O)(O)CC(C)CC(C)(C)C (configuration not stated) + CCCCCCCO
298.15 K, 101 kPa
Details	viscosity [mPa·s]
x1 = 0.0091	6.029
x1 = 0.0166	6.297
x1 = 0.0189	6.395
x2 = 0.0832	103
x2 = 0.1509	92.76
x2 = 0.2814	72.97
x2 = 0.4338	51.94
x2 = 0.5979	33.45
x2 = 0.6948	24.29
x2 = 0.7164	22.65
x2 = 0.819	14.88
x2 = 0.83	13.87
x2 = 0.8984	10.18
x2 = 0.9056	9.875
x2 = 0.9596	7.316

CC(CC(C)(C)C)CP(=O)(O)CC(C)CC(C)(C)C (configuration not stated) + C1CCCCC1
298.15 K, 101 kPa
Details	viscosity [mPa·s]
x1 = 0.007	0.95
x1 = 0.0117	0.998
x1 = 0.015	1.052
x2 = 0.1098	97.92
x2 = 0.1822	85
x2 = 0.3325	59.34
x2 = 0.505	32.7
x2 = 0.6519	16.56
x2 = 0.7568	8.757
x2 = 0.7617	8.623
x2 = 0.851	4.302
x2 = 0.8636	3.779
x2 = 0.8895	3.032
x2 = 0.9226	2.188
x2 = 0.9255	2.102
x2 = 0.9573	1.489
x2 = 0.9686	1.301

CCOCCO + CCc1ccccc1
viscosity [mPa·s]
Details	298.15 K	308.15 K
101 kPa, x1 = 0.0573	0.658	0.557
101 kPa, x1 = 0.1487	0.696	0.597
101 kPa, x1 = 0.2498	0.749	0.648
101 kPa, x1 = 0.3527	0.817	0.708
101 kPa, x1 = 0.4489	0.895	0.773
101 kPa, x1 = 0.4998	0.944	0.812
101 kPa, x1 = 0.5485	0.995	0.852
101 kPa, x1 = 0.6501	1.121	0.945
101 kPa, x1 = 0.7484	1.273	1.05
101 kPa, x1 = 0.8508	1.469	1.178
101 kPa, x1 = 0.9547	1.721	1.331
101.33 kPa, x2 = 0.0993	1.589	–
101.33 kPa, x2 = 0.1968	1.378	–
101.33 kPa, x2 = 0.293	1.22	–
101.33 kPa, x2 = 0.4069	1.055	–
101.33 kPa, x2 = 0.5133	0.929	–
101.33 kPa, x2 = 0.6286	0.822	–
101.33 kPa, x2 = 0.7484	0.736	–
101.33 kPa, x2 = 0.8672	0.677	–

CC(CC(C)(C)C)CP(=O)(O)CC(C)CC(C)(C)C (configuration not stated) + Cc1ccccc1
298.15 K, 101 kPa
Details	viscosity [mPa·s]
x1 = 0.0069	0.589
x1 = 0.0129	0.633
x1 = 0.0143	0.65
x2 = 0.1117	88.23
x2 = 0.2037	66.68
x2 = 0.3198	43.9
x2 = 0.4972	20.43
x2 = 0.6533	9.197
x2 = 0.7579	4.844
x2 = 0.7674	4.562
x2 = 0.8571	2.218
x2 = 0.8649	2.075
x2 = 0.9241	1.252
x2 = 0.9269	1.219
x2 = 0.9692	0.778

CCOCCO + ClC(Cl)(Cl)Cl
viscosity [mPa·s], 100 kPa
Details	x2 = 0.0977	x2 = 0.1959	x2 = 0.2946	x2 = 0.3938	x2 = 0.4935	x2 = 0.5937	x2 = 0.6945	x2 = 0.7958	x2 = 0.8976
298.15 K	1.784	1.657	1.539	1.428	1.325	1.229	1.14	1.056	0.9785
303.15 K	1.572	1.47	1.373	1.283	1.197	1.118	1.043	0.9725	0.9067
308.15 K	1.391	1.308	1.23	1.155	1.085	1.019	0.9566	0.8976	0.8421
313.15 K	1.236	1.168	1.105	1.044	0.9864	0.9318	0.8798	0.8306	0.7838

CCOCCO + CCCCCCC
viscosity [mPa·s], 101.33 kPa
Details	x1 = 0.1091	x1 = 0.1973	x1 = 0.299	x1 = 0.4	x1 = 0.5014	x1 = 0.6074	x1 = 0.6986	x1 = 0.799	x1 = 0.8989
298.15 K	0.422	0.455	0.51	0.585	0.671	–	0.922	1.12	1.39
303.15 K	0.398	0.428	0.478	0.541	0.619	0.673	0.843	1.013	1.247
308.15 K	0.377	0.404	0.449	0.506	0.574	0.63	0.772	0.927	1.133
313.15 K	0.355	0.382	0.422	0.472	0.535	0.592	0.713	0.844	1.026
